We go through 27 compounds from US8735414B2 (priority 2009, dated 2014).

Data set [1] concerns bicistronic HCV replicon (replicon RNA, GenBank Accession No. AJ242654). Briefly: HCV Replicon Assay. As to conditions: Hepatitis C virus, 72 h, read-out: Replicon IC50. The format is cell-based.

Where only a bound is given, the exact number is not on record here.

Regarding `C[C@H](NS(=O)(=O)c1ccc(-c2cc3cc(F)c(O)cc3n2C2CCC2)nc1)C(F)(F)F` [compound 728, 6-(1-cyclobutyl-5-fluoro-6-hydroxy-1H-indol-2-yl)-N-[(2S)-1,1,1-trifluoropropan-2-yl]pyridine-3-sulfonamide], the melting point was 193 to 195 °C. The IC50 in data set [1] was 2000 to 5000 nM.

Consider `CC(=O)c1cc2c(cc1F)c(C#N)c(-c1ccc(S(=O)(=O)N[C@@H](C)C(F)(F)F)cn1)n2-c1ncccn1` [compound 907, 6-[6-acetyl-3-cyano-5-fluoro-1-(pyrimidin-2-yl)-1H-indol-2-yl]-N-[(2S)-1,1,1-trifluoropropan-2-yl]pyridine-3-sulfonamide], for which the melting point lay within 220 to 221 °C. In data set [1], the IC50 was below 500 nM.

The compound `CCc1cc2c(cc1F)c(C#N)c(-c1ccc(S(=O)(=O)N[C@H](C)C(F)(F)F)cn1)n2C1CCC1` [compound 641, 6-(3-cyano-1-cyclobutyl-6-ethyl-5-fluoro-1H-indol-2-yl)-N-[(2R)-1,1,1-trifluoropropan-2-yl]pyridine-3-sulfonamide] yielded a melting point of 199 to 199.5 °C. The 50% inhibitory concentration (IC50) in data set [1] is below 500 nM.

`Cc1ccc2c(C#N)c(-c3ccc(S(=O)(=O)N[C@@H](C)C(F)(F)F)cn3)n(-c3ncccn3)c2c1` [compound 677, 6-[3-cyano-6-methyl-1-(pyrimidin-2-yl)-1H-indol-2-yl]-N-[(2S)-1,1,1-trifluoropropan-2-yl]pyridine-3-sulfonamide] displayed a melting point of 195 to 198 °C. Moreover, in data set [1], the IC50 was below 500 nM.

`C[C@H](NS(=O)(=O)c1ccc(-c2c(C#N)c3cc(Br)c(O)cc3n2C2CCC2)nc1)C(F)(F)F` [compound 684, 6-(5-bromo-3-cyano-1-cyclobutyl-6-hydroxy-1H-indol-2-yl)-N-[(2S)-1,1,1-trifluoropropan-2-yl]pyridine-3-sulfonamide] returned a melting point of 223 to 224 °C. Further, in data set [1], the IC50 lay within 500 to 2000 nM.

As to `Cc1cc2c(cc1Cl)c(C#N)c(-c1ncc(S(=O)(=O)NC(CF)CF)cn1)n2C1CCC1` [compound 447, 2-(5-chloro-3-cyano-1-cyclobutyl-6-methyl-1H-indol-2-yl)-N-(1,3-difluoropropan-2-yl)pyrimidine-5-sulfonamide], the melting point was in the range of 275 to 279 °C. The IC50 in data set [1] was below 500 nM.

On to `CC(C)NS(=O)(=O)c1cnc(-c2c(C#N)c3ccc(OC(F)F)cc3n2C2CCC2)nc1` [compound 127, 2-[3-cyano-1-cyclobutyl-6-(difluoromethoxy)-1H-indol-2-yl]-N-(propan-2-yl)pyrimidine-5-sulfonamide], for which the melting point lay within 192 to 194 °C. Also, the IC50 in data set [1] was below 500 nM.

For the compound `C[C@H](NS(=O)(=O)c1ccc(-c2c(C#N)c3ccc(C4CC4)cc3n2C2CCC2)nc1)C1CC1` [compound 236, 6-(3-cyano-1-cyclobutyl-6-cyclopropyl-1H-indol-2-yl)-N-[(1S)-1-cyclopropylethyl]pyridine-3-sulfonamide], the melting point is 170 to 176 °C. Besides, in data set [1], the 50% inhibitory concentration (IC50) was below 500 nM.

Compound `CC(C)NS(=O)(=O)c1cnc(-c2c(C(N)=O)c3ccc(OC(F)F)cc3n2C2CCCCC2)nc1` [compound 747, 1-cyclohexyl-6-(difluoromethoxy)-2-[5-(propan-2-ylsulfamoyl)pyrimidin-2-yl]-1H-indole-3-carboxamide] displayed a melting point of 216 to 218 °C. Besides, the 50% inhibitory concentration (IC50) in data set [1] was below 500 nM.

In turn, `N#Cc1c(-c2ccc(S(=O)(=O)NC(CF)CF)cn2)n(CC2CC2)c2cc(OC(F)F)ccc12` [compound 41, 6-[3-cyano-1-(cyclopropylmethyl)-6-(difluoromethoxy)-1H-indol-2-yl]-N-(1,3-difluoropropan-2-yl)pyridine-3-sulfonamide] showed a melting point of 150 to 151 °C. In addition, the IC50 in data set [1] was below 500 nM.

`COc1cc2c(C#N)c(-c3ccc(S(=O)(=O)N[C@@H](C)C(F)(F)F)cn3)n(C3CCCC3)c2cc1C` [compound 669, 6-(3-cyano-1-cyclopentyl-5-methoxy-6-methyl-1H-indol-2-yl)-N-[(2S)-1,1,1-trifluoropropan-2-yl]pyridine-3-sulfonamide] displayed a melting point of 211 to 211.5 °C. In addition, the IC50 in data set [1] was below 500 nM.

Compound `CCc1cc2c(cc1F)c(C#N)c(-c1ccc(S(=O)(=O)N[C@@H](C)C(F)(F)F)c(C)n1)n2-c1ccccn1` [compound 887, 6-[3-cyano-6-ethyl-5-fluoro-1-(pyridin-2-yl)-1H-indol-2-yl]-2-methyl-N-[(2S)-1,1,1-trifluoropropan-2-yl]pyridine-3-sulfonamide] gave a melting point of 219 to 224 °C. Besides, the IC50 in data set [1] was below 500 nM.

Compound `CC(C)NS(=O)(=O)c1cnc(-c2c(C#N)c3cc(Cl)ccc3n2C(C)C)nc1` [compound 120, 2-[5-chloro-3-cyano-1-(propan-2-yl)-1H-indol-2-yl]-N-(propan-2-yl)pyrimidine-5-sulfonamide] displayed a melting point of 202 to 220 °C. Besides, the IC50 in data set [1] is below 500 nM.

For `Cc1ccc2c(C#N)c(-c3ccc(S(=O)(=O)NC(CF)CF)cn3)n(-c3ccccn3)c2c1` [compound 248, 6-[3-cyano-6-methyl-1-(pyridin-2-yl)-1H-indol-2-yl]-N-(1,3-difluoropropan-2-yl)pyridine-3-sulfonamide], the melting point was in the range of 159 to 162 °C. For the same compound, the IC50 in data set [1] was below 500 nM.

With `Cc1ccc2c(C#N)c(-c3ccc(S(=O)(=O)NC(CF)CF)cn3)n(C3CCCC3)c2c1F` [compound 423, 6-(3-cyano-1-cyclopentyl-7-fluoro-6-methyl-1H-indol-2-yl)-N-(1,3-difluoropropan-2-yl)pyridine-3-sulfonamide], the melting point is 211 to 216 °C. Moreover, in data set [1], the IC50 is below 500 nM.

`COc1ccc2c(C#N)c(-c3ccc(S(=O)(=O)N[C@H](C)C(F)(F)F)cn3)n(C3CCCCC3)c2c1` [compound 518, 6-(3-cyano-1-cyclohexyl-6-methoxy-1H-indol-2-yl)-N-[(2R)-1,1,1-trifluoropropan-2-yl]-pyridine-3-sulfonamide] returned a melting point of 198 to 204 °C. In addition, the IC50 in data set [1] was below 500 nM.

On to `C[C@@H](NS(=O)(=O)c1ccc(-c2c(C#N)c3cc(Cl)ccc3n2C2CCCCC2)nc1)C(F)(F)F` [compound 461, 6-(5-chloro-3-cyano-1-cyclohexyl-1H-indol-2-yl)-N-[(2R)-1,1,1-trifluoropropan-2-yl]pyridine-3-sulfonamide], for which the melting point fell in the range of 226 to 227 °C. Also, the IC50 in data set [1] was below 500 nM.

On to `C[C@H](NS(=O)(=O)c1ccc(-c2c(C#N)c3ccc(OC(F)(F)F)cc3n2C2CCCC2)nc1)C(F)(F)F` [compound 358, 6-[3-cyano-1-cyclopentyl-6-(trifluoromethoxy)-1H-indol-2-yl]-N-[(2S)-1,1,1-trifluoropropan-2-yl]pyridine-3-sulfonamide], for which the melting point was in the range of 168 to 170 °C. For the same compound, in data set [1], the IC50 was below 500 nM.

As to `Cc1ccc2c(c1)c(C#N)c(-c1ncc(S(=O)(=O)N[C@@H](C)C(F)(F)F)cn1)n2CC1CC1` [compound 389, 2-[3-cyano-1-(cyclopropylmethyl)-5-methyl-1H-indol-2-yl]-N-[(2S)-1,1,1-trifluoropropan-2-yl]pyrimidine-5-sulfonamide], the melting point fell in the range of 220 to 223 °C. Besides, in data set [1], the concentration for half-maximal inhibition (IC50) was in the range of 500 to 2000 nM.

Consider `CC(C)n1c(-c2ncc(S(=O)(=O)N[C@@H](C)C(F)(F)F)cn2)c(C#N)c2cc(F)ccc21` [compound 546, 2-[3-cyano-5-fluoro-1-(propan-2-yl)-1H-indol-2-yl]-N-[(2S)-1,1,1-trifluoropropan-2-yl]pyrimidine-5-sulfonamide], for which the melting point fell in the range of 172 to 176 °C. For the same compound, the IC50 in data set [1] was in the range of 500 to 2000 nM.

As to `CC(C)NS(=O)(=O)c1cnc(-c2c(C#N)c3ccc(C4CC4)cc3n2C2CCCC2)nc1` [compound 125, 2-(3-cyano-1-cyclopentyl-6-cyclopropyl-1H-indol-2-yl)-N-(propan-2-yl)pyrimidine-5-sulfonamide], the melting point lay within 211 to 212 °C. Also, in data set [1], the IC50 is below 500 nM.

`Cc1cc2c(cc1F)c(C#N)c(-c1ccc(S(=O)(=O)N[C@@H](C)C(F)(F)F)cn1)n2-c1ccccn1` [compound 541, 6-[3-cyano-5-fluoro-6-methyl-1-(pyridin-2-yl)-1H-indol-2-yl]-N-[(2S)-1,1,1-trifluoropropan-2-yl]pyridine-3-sulfonamide]: the melting point is 160 to 164 °C. In addition, in data set [1], the IC50 is below 500 nM.

Consider `Cc1ccc2c(c1)c(C#N)c(-c1ccc(S(=O)(=O)NC(CF)CF)cn1)n2-c1ccccn1` [compound 504, 6-[3-cyano-5-methyl-1-(pyridin-2-yl)-1H-indol-2-yl]-N-(1,3-difluoropropan-2-yl)pyridine-3-sulfonamide], for which the melting point was in the range of 177 to 179 °C. In addition, the IC50 in data set [1] was below 500 nM.

On to `N#Cc1c(-c2ncc(S(=O)(=O)NC(CF)CF)cn2)n(C2CCC2)c2ccc(F)cc12` [compound 452, 2-(3-cyano-1-cyclobutyl-5-fluoro-1H-indol-2-yl)-N-(1,3-difluoropropan-2-yl)pyrimidine-5-sulfonamide], for which the melting point fell in the range of 175 to 180 °C. In data set [1], the 50% inhibitory concentration (IC50) is below 500 nM.

The compound `N#Cc1c(-c2ccc(S(=O)(=O)NC(CF)CF)cn2)n(C2CCCCC2)c2cc(Cl)ccc12` [compound 89, 6-(6-chloro-3-cyano-1-cyclohexyl-1H-indol-2-yl)-N-(1,3-difluoropropan-2-yl)pyridine-3-sulfonamide] yielded a melting point of 203 to 207 °C. In addition, in data set [1], the IC50 is below 500 nM.

The compound `Cc1ccc2cc(-c3ccc(S(=O)(=O)NC(CF)CF)cn3)n(C3CCC3)c2c1` [compound 511, 6-(1-cyclobutyl-6-methyl-1H-indol-2-yl)-N-(1,3-difluoropropan-2-yl)pyridine-3-sulfonamide] gave a melting point of 137 to 139 °C. Moreover, in data set [1], the half-maximal inhibitory concentration (IC50) is below 500 nM.

With `CC(C)NS(=O)(=O)c1cnc(-c2c(C#N)c3cc(Cl)ccc3n2C2CCCCC2)nc1` [compound 97, 2-(5-chloro-3-cyano-1-cyclohexyl-1H-indol-2-yl)-N-(propan-2-yl)pyrimidine-5-sulfonamide], the melting point is 210 to 215 °C. Also, the IC50 in data set [1] lay within 500 to 2000 nM.
